Results as given in PMC7026418, “The kinase polypharmacology landscape of clinical PARP inhibitors” (Scientific Reports, 2020).
Where two headings read alike, the source gives them in different places.

Legend:
Experiment in all cases: biochemical
Parameters in all cases: DiscoveRx KINOMEscan active site-directed competition binding; percent of control kinase bound to immobilised ligand
PRKD3 = target: T1, PRKD3 (Homo sapiens, UniProt O94806)
T1 sequence (O94806 1-890): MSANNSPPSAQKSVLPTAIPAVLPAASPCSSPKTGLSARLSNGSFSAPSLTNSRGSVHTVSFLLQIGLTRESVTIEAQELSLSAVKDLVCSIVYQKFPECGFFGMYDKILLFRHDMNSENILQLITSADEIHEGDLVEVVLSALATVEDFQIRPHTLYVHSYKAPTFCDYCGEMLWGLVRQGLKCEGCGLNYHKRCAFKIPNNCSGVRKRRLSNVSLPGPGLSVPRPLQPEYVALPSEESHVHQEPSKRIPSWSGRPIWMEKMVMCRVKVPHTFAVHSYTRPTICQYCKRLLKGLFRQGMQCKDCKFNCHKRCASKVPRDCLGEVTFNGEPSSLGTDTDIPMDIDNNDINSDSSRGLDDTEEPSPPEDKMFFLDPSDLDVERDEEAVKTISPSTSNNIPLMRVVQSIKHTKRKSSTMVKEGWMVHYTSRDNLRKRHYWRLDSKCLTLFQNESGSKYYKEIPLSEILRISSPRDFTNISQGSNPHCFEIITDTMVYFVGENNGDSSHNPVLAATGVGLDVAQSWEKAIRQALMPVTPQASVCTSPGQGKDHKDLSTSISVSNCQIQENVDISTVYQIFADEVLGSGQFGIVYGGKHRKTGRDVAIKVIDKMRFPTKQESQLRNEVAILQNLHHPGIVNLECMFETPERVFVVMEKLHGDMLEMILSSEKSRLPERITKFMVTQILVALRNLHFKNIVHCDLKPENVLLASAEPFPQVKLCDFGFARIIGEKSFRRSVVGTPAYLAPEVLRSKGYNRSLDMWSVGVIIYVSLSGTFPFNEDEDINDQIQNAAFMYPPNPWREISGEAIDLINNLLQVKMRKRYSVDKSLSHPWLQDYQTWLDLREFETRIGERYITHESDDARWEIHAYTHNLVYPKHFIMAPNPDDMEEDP

CSF1R = CSF1R (Homo sapiens, UniProt P07333)
FRK = FRK (Homo sapiens, UniProt P42685)
AAK1 = AAK1 (Homo sapiens, UniProt Q2M2I8)
TIE1 = TIE1 (Homo sapiens, UniProt P35590)
[1] = target: T2, JAK3(JH1domain-catalytic) (Homo sapiens, UniProt P52333)
T2 construct: JH1domain-catalytic
T2 sequence (P52333 1-1124): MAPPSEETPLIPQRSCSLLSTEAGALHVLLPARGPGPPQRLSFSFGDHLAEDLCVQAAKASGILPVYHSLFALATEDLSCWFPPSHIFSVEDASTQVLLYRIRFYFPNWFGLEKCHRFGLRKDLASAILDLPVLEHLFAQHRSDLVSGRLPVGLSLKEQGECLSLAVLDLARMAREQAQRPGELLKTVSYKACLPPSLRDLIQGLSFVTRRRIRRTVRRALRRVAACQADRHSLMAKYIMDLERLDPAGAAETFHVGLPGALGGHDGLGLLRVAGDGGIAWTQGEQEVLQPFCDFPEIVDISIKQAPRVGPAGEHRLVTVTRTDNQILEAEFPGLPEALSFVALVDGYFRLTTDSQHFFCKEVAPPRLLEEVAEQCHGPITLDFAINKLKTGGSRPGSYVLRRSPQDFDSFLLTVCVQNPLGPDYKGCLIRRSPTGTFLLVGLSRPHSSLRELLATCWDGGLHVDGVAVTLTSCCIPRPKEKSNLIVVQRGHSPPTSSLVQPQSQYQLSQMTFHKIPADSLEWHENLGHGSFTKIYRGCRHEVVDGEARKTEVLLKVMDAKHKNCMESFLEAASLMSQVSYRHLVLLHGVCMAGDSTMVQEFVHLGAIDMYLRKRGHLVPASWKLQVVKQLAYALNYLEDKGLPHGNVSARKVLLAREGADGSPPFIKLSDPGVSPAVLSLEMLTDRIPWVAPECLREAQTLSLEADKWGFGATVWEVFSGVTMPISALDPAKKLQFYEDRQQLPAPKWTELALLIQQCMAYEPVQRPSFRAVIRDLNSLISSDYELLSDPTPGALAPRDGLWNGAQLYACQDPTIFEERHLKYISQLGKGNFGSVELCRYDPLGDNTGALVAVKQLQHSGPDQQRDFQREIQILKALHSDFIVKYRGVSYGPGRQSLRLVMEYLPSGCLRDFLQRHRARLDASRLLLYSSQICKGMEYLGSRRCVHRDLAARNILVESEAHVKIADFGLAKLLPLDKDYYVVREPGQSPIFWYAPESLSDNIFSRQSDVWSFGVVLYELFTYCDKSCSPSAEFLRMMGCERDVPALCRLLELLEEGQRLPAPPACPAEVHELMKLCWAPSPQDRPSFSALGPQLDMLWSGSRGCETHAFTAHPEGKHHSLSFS

RET = RET (Homo sapiens, UniProt P07949)
PRKCH = PRKCH (Homo sapiens, UniProt P24723)
[2] = read-out: Talazoparib (BMN 673) / %Ctrl @ 10000nM
[3] = read-out: Olaparib / %Ctrl @ 10000nM
[4] = read-out: Niraparib (MK-4827) / %Ctrl @ 10000nM
[5] = read-out: Rucaparib / %Ctrl @ 10000nM, binding competition, % of control

Chain of FRK (P42685 whole entry): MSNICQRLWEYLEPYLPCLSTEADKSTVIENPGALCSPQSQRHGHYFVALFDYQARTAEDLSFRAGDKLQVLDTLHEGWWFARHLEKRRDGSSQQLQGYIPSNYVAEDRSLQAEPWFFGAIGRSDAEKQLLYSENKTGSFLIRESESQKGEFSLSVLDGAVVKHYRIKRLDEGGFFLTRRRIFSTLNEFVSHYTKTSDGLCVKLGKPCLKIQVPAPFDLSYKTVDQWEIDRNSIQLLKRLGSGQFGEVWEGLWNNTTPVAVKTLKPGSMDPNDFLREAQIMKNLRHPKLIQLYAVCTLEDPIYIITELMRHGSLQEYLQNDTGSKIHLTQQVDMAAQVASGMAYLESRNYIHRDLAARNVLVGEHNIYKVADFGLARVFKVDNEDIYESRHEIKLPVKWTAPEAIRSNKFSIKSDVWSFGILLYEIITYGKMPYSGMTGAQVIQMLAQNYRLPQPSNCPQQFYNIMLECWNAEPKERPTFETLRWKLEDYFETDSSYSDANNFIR
Chain of RET (P07949 whole entry): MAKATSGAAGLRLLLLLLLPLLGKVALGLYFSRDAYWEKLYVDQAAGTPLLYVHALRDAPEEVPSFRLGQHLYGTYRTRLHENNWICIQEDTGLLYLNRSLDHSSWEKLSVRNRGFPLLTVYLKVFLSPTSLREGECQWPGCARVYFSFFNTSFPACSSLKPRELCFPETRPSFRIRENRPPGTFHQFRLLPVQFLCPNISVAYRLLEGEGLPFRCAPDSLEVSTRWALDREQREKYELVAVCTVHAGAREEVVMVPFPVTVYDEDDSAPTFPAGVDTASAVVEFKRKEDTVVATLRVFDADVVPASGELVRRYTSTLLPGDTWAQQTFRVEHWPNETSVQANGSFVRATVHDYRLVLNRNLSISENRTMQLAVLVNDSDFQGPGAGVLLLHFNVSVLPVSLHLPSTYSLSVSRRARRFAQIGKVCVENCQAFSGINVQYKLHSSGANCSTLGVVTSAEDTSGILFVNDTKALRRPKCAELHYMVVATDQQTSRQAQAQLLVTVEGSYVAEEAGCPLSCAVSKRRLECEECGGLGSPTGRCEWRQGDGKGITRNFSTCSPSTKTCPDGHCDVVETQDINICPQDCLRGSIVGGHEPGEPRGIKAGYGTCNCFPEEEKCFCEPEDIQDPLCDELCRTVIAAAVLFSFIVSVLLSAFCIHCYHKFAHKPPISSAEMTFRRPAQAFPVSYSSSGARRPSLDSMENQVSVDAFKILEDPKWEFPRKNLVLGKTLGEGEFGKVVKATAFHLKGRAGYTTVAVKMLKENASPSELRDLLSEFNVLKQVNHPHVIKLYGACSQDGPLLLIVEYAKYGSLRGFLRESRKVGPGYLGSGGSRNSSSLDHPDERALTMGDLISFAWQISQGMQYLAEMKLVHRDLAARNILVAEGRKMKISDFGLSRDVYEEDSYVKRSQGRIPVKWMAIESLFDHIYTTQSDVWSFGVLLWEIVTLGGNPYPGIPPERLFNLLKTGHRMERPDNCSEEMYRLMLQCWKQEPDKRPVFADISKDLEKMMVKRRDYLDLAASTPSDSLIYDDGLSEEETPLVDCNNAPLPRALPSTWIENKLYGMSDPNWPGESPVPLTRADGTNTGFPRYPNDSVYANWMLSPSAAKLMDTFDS
Chain of CSF1R (P07333 whole entry): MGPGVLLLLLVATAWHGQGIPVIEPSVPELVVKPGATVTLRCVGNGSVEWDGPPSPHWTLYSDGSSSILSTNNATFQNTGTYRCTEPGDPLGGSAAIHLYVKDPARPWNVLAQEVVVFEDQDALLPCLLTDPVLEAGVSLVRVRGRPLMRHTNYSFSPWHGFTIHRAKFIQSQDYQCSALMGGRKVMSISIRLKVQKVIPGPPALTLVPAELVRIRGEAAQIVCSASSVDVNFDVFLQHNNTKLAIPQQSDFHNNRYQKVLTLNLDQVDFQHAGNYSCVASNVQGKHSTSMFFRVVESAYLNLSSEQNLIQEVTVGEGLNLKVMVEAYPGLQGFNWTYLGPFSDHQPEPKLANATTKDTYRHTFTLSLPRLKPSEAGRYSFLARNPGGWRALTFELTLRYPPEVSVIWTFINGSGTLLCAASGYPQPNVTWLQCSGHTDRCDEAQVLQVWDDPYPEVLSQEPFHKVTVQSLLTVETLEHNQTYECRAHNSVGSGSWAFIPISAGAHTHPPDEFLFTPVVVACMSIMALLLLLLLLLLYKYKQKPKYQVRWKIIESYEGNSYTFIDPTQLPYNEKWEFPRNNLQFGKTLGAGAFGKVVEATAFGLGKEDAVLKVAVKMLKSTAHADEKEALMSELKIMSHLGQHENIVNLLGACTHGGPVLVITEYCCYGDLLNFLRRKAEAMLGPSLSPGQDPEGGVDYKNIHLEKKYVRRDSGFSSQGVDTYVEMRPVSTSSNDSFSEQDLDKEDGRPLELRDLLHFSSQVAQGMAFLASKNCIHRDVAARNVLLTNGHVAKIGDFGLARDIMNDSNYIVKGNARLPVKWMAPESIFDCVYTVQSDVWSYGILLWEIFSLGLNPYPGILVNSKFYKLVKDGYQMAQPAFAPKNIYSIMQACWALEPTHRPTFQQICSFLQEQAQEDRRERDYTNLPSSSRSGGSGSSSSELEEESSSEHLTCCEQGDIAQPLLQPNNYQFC
Chain of TIE1 (P35590 whole entry): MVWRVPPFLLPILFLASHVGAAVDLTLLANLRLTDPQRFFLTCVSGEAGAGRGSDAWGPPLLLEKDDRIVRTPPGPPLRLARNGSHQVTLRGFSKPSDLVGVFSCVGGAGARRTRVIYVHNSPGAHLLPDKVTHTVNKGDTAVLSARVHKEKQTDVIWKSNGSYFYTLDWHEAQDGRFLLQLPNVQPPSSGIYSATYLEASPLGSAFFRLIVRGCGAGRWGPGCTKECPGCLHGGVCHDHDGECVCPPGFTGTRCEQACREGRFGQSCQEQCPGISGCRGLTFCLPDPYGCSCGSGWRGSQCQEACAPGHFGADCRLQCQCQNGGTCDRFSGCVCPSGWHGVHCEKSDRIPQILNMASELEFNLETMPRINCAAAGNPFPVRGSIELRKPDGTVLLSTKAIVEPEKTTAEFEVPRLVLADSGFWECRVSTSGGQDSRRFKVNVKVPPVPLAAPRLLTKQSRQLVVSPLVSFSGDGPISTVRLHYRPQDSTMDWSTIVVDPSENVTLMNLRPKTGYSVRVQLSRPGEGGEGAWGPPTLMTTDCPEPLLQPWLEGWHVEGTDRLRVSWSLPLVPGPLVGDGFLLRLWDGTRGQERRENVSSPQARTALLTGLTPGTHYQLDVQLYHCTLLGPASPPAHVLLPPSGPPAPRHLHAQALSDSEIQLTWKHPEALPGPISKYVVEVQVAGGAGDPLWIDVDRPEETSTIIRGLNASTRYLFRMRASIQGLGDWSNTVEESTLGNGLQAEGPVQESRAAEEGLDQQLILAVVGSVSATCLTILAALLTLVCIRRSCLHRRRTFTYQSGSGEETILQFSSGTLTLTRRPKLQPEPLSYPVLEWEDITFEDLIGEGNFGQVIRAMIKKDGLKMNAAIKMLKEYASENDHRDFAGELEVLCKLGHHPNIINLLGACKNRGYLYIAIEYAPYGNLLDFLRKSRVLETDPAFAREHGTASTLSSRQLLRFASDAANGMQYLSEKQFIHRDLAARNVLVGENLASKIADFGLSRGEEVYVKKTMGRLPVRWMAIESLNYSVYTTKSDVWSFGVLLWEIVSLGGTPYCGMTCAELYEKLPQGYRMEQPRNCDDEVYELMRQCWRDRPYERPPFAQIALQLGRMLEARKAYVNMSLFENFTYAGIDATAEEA
Chain of PRKCH (P24723 whole entry): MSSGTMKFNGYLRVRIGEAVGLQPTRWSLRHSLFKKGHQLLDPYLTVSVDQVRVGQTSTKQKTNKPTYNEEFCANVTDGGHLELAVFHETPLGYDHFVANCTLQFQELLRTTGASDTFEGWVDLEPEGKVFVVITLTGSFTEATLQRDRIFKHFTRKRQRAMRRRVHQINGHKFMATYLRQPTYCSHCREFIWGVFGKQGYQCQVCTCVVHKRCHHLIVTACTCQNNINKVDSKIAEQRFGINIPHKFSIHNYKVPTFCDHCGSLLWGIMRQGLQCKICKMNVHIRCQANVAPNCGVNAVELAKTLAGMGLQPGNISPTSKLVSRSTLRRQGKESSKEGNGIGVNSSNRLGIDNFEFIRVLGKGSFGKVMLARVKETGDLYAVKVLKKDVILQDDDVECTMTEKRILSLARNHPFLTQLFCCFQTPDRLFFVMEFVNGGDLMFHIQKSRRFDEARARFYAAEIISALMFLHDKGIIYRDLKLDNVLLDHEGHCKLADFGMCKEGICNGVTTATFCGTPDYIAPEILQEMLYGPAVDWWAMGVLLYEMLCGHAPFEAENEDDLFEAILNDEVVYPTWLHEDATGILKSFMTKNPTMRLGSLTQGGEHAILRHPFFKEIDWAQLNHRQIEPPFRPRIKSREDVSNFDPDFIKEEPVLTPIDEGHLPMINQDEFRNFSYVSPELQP

Cn1ncnc1[C@H]1c2n[nH]c(=O)c3cc(F)cc(c23)N[C@@H]1c1ccc(F)cc1 [Talazoparib] showed a percent of control binding at 10 µM (PRKD3; [2]) of 89%, a percent of control binding at 10 µM (CSF1R; [2]) of 99% and a percent of control binding at 10 µM (FRK; [2]) of 85%. The percent of control binding at 10 µM (AAK1; [2]) was 93%, the percent of control binding at 10 µM (TIE1; [2]) was 100% and the percent of control binding at 10 µM [1, 2] was 100%. For the same compound, the percent of control binding at 10 µM (RET; [2]) was 100% and the percent of control binding at 10 µM (PRKCH; [2]) was 98%.
With O=C(c1cc(Cc2n[nH]c(=O)c3ccccc23)ccc1F)N1CCN(C(=O)C2CC2)CC1 [Olaparib] the percent of control binding at 10 µM (PRKD3; [3]) was 83%, the percent of control binding at 10 µM (CSF1R; [3]) was 95% and the percent of control binding at 10 µM (FRK; [3]) was 90%. It also gave a percent of control binding at 10 µM (AAK1; [3]) of 100%, a percent of control binding at 10 µM (TIE1; [3]) of 96% and a percent of control binding at 10 µM [1, 3] of 83%. For the same compound, the percent of control binding at 10 µM (RET; [3]) was 100% and the percent of control binding at 10 µM (PRKCH; [3]) was 94%.
NC(=O)c1cccc2cn(-c3ccc([C@@H]4CCCNC4)cc3)nc12 [Niraparib] showed a percent of control binding at 10 µM (PRKD3; [4]) of 76%, a percent of control binding at 10 µM (CSF1R; [4]) of 91% and a percent of control binding at 10 µM (FRK; [4]) of 91%. For the same compound, the percent of control binding at 10 µM (AAK1; [4]) was 83%, the percent of control binding at 10 µM (TIE1; [4]) was 87% and the percent of control binding at 10 µM [1, 4] was 95%. It also gave a percent of control binding at 10 µM (RET; [4]) of 83% and a percent of control binding at 10 µM (PRKCH; [4]) of 85%.
Work on CNCc1ccc(-c2[nH]c3cc(F)cc4c3c2CCNC4=O)cc1 [Rucaparib] yielded a percent of control binding at 10 µM (PRKD3; [5]) of 78%, a percent of control binding at 10 µM (CSF1R; [5]) of 94% and a percent of control binding at 10 µM (FRK; [5]) of 97%. It also gave a percent of control binding at 10 µM (AAK1; [5]) of 82%, a percent of control binding at 10 µM (TIE1; [5]) of 92% and a percent of control binding at 10 µM [1, 5] of 70%. For the same compound, the percent of control binding at 10 µM (RET; [5]) was 98% and the percent of control binding at 10 µM (PRKCH; [5]) was 94%.
